Several values for one entry are separate records, joined by “and”; a condition that tells them apart may be missing. Identical values can stand only once.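 Tested at 5 concentrations; 48 h exposure; 96-well plates; endpoints linearly interpolated, else capped at highest concentration. GI50 = concentration required for 50% inhibition of growth. TGI is the concentration that stops growth completely.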 Some results are limits rather than exact numbers.

The subject of the first experiment is NCI-H23 lung. In words: inhibition of tumour cell growth, NCI panel, 48 h.
In turn, `CC(=O)c1ccc2c(c1)CC1(C2)Cc2cc3c(cc2C1=O)CCC3` (stereo not drawn) came in with a TGI of 89.1 µM.
The compound `CSc1nc2c(c(=O)[nH]1)N=C(c1ccc([N+](=O)[O-])cc1)CC(c1ccccc1)N2` (stereo not drawn) registered a TGI above 100 µM.
For `CN(C)c1ccc(NN=C2SC(=Nc3ccccc3)C(=Nc3ccccc3)S2)cc1`, the TGI is above 100 µM.
With `C=C(Br)CNC(=O)Nc1ccc(Cl)c(Cl)c1`, the TGI amounted to 39.6 µM.
Consider `CCC(C=O)P1(=O)OC(C)(C)CN1C(C)(C)C` (stereo not drawn), for which the TGI is above 100 µM.
`CC1CC(C)C(C#N)N(C)c2ccccc21` (stereo not drawn) came in with a TGI above 100 µM.
`NC(N)=NCCCC(NC(=O)c1cccc2c(=O)c3ccccc3[nH]c12)C(=O)O` (stereo not drawn) yielded a TGI above 100 µM.
On to `O=C(NNCC(O)COc1ccccc1)c1ccccc1` (stereo not drawn), for which the TGI was above 100 µM.
Turning to `O=S1(=O)OCCOS(=O)(=O)C1(F)Br`, the TGI was above 100 µM.
Consider `O=C(CCCN1CCC2(CC1)CC(c1ccccc1)OC2=O)c1ccc(F)cc1` (stereo not drawn), for which the TGI is above 100 µM.
`O=C1NC(=O)C2C(=O)NC(=O)C1C2c1c(Cl)cccc1Cl` (stereo not drawn) registered a TGI above 100 µM.
In turn, `COc1cc2c(c(OC)c1)/C(=C/Sc1ccccc1)C(=O)N(C(C)(C)C)C2` returned a TGI of 77.1 µM.
`CC(=O)C(CN(CC(C)C)CC(C)C)C(c1ccccc1)c1c(O)c2ccccc2oc1=O` (stereo not drawn): the TGI was above 100 µM.

The next experiment concerns SK-MEL-2 melanoma. The experiment can be described thus: inhibition of tumour cell growth, NCI panel, 48 h.
On to `CCN1CCC(C)OP1(=O)Cc1ccccc1` (stereo not drawn), for which the TGI was above 100 µM.
For the compound `COc1cc2c3c(c1)CCCN3CCC2`, the TGI is above 10 µM.
Regarding `CCOC(=O)C1C(c2ccc3c(c2)OCO3)c2c([nH][nH]c2=O)CC1(C)O` (stereo not drawn), the TGI is above 100 µM.
Consider `CC1(C)C=Cc2c(cc(O)c3c(=O)c4cc(Cl)ccc4[nH]c23)O1`, for which the TGI worked out at 9.75 µM.
On to `CC(=O)c1ccc2c(c1)CC1(C2)Cc2cc3c(cc2C1=O)CCC3` (stereo not drawn), for which the TGI is 46.2 µM.
The same measure, in the same setting: the figure for `CSc1nc2c(c(=O)[nH]1)N=C(c1ccc([N+](=O)[O-])cc1)CC(c1ccccc1)N2` (stereo not drawn) is 88.5 µM.
Compound `CN(C)c1ccc(NN=C2SC(=Nc3ccccc3)C(=Nc3ccccc3)S2)cc1` showed a TGI above 100 µM.
The same measure, in the same setting: the figure for `C=C(Br)CNC(=O)Nc1ccc(Cl)c(Cl)c1` is 32.8 µM; for `CCC(C=O)P1(=O)OC(C)(C)CN1C(C)(C)C` (stereo not drawn) it is above 100 µM.
Turning to `CC1CC(C)C(C#N)N(C)c2ccccc21` (stereo not drawn), the TGI is above 100 µM.
Compound `NC(N)=NCCCC(NC(=O)c1cccc2c(=O)c3ccccc3[nH]c12)C(=O)O` (stereo not drawn) had a TGI above 100 µM.
The same measure, in the same setting: the result for `O=C(NNCC(O)COc1ccccc1)c1ccccc1` (stereo not drawn) reads above 100 µM; that for `COC(=O)[C@@H]1CC(C(C[N+](=O)[O-])c2ccc(O[Si](C)(C)C(C)(C)C)cc2)C(=O)N1C(=O)OC(C)(C)C` (stereo partly drawn), above 100 µM; that for `O=S1(=O)OCCOS(=O)(=O)C1(F)Br`, above 100 µM.
The same measure, in the same setting: the figure for `O=C(CCCN1CCC2(CC1)CC(c1ccccc1)OC2=O)c1ccc(F)cc1` (stereo not drawn) is above 100 µM.
For the compound `O=C1NC(=O)C2C(=O)NC(=O)C1C2c1c(Cl)cccc1Cl` (stereo not drawn), the TGI was above 100 µM.
`COc1cc2c(c(OC)c1)/C(=C/Sc1ccccc1)C(=O)N(C(C)(C)C)C2` returned a TGI of 42.5 µM.
As to `CC(=O)C(CN(CC(C)C)CC(C)C)C(c1ccccc1)c1c(O)c2ccccc2oc1=O` (stereo not drawn), the TGI was above 100 µM.

The subject of a further experiment is ACHN renal. In words: inhibition of tumour cell growth, NCI panel, 48 h.
`CCN1CCC(C)OP1(=O)Cc1ccccc1` (stereo not drawn) yielded a TGI above 100 µM.
On to `COc1cc2c3c(c1)CCCN3CCC2`, for which the TGI was above 10 µM.
The compound `CCOC(=O)C1C(c2ccc3c(c2)OCO3)c2c([nH][nH]c2=O)CC1(C)O` (stereo not drawn) displayed a TGI above 100 µM.
Compound `CC1(C)C=Cc2c(cc(O)c3c(=O)c4cc(Cl)ccc4[nH]c23)O1` yielded a TGI above 10 µM.
As for `CC(=O)c1ccc2c(c1)CC1(C2)Cc2cc3c(cc2C1=O)CCC3` (stereo not drawn), the TGI was 58.2 µM.
Still for that read-out and setting: the figure for `CSc1nc2c(c(=O)[nH]1)N=C(c1ccc([N+](=O)[O-])cc1)CC(c1ccccc1)N2` (stereo not drawn) is above 100 µM.
As for `CN(C)c1ccc(NN=C2SC(=Nc3ccccc3)C(=Nc3ccccc3)S2)cc1`, the TGI is above 100 µM.
The same measure, in the same setting: the result for `C=C(Br)CNC(=O)Nc1ccc(Cl)c(Cl)c1` reads 55 µM.
Take `CCC(C=O)P1(=O)OC(C)(C)CN1C(C)(C)C` (stereo not drawn): the TGI was above 100 µM.
On to `CC1CC(C)C(C#N)N(C)c2ccccc21` (stereo not drawn), for which the TGI is above 100 µM.
On the same count and under the same terms, the figure for `NC(N)=NCCCC(NC(=O)c1cccc2c(=O)c3ccccc3[nH]c12)C(=O)O` (stereo not drawn) is above 100 µM.
On the same count and under the same terms, the result for `O=C(NNCC(O)COc1ccccc1)c1ccccc1` (stereo not drawn) reads above 100 µM.
Regarding `COC(=O)[C@@H]1CC(C(C[N+](=O)[O-])c2ccc(O[Si](C)(C)C(C)(C)C)cc2)C(=O)N1C(=O)OC(C)(C)C` (stereo partly drawn), the GI50 is 28.1 µM and > 100 µM; the TGI is above 100 µM.
Turning to `O=S1(=O)OCCOS(=O)(=O)C1(F)Br`, the TGI is above 100 µM.
`O=C(CCCN1CCC2(CC1)CC(c1ccccc1)OC2=O)c1ccc(F)cc1` (stereo not drawn) gave a TGI above 100 µM.
Still for that read-out and setting: the figure for `O=C1NC(=O)C2C(=O)NC(=O)C1C2c1c(Cl)cccc1Cl` (stereo not drawn) is above 100 µM.
In turn, `COc1cc2c(c(OC)c1)/C(=C/Sc1ccccc1)C(=O)N(C(C)(C)C)C2` returned a TGI above 100 µM.
`CC(=O)C(CN(CC(C)C)CC(C)C)C(c1ccccc1)c1c(O)c2ccccc2oc1=O` (stereo not drawn) showed a TGI above 100 µM.

The next experiment deals with HOP-62 NSCLC. In words: inhibition of tumour cell growth, NCI panel, 48 h.
In the case of `CCN1CCC(C)OP1(=O)Cc1ccccc1` (stereo not drawn), the TGI is above 100 µM.
In the case of `COc1cc2c3c(c1)CCCN3CCC2`, the TGI was above 10 µM.
As for `CCOC(=O)C1C(c2ccc3c(c2)OCO3)c2c([nH][nH]c2=O)CC1(C)O` (stereo not drawn), the TGI was above 100 µM.
Same read-out and setting: the figure for `CC1(C)C=Cc2c(cc(O)c3c(=O)c4cc(Cl)ccc4[nH]c23)O1` is above 10 µM; for `CC(=O)c1ccc2c(c1)CC1(C2)Cc2cc3c(cc2C1=O)CCC3` (stereo not drawn) it is 81.3 µM.
`CSc1nc2c(c(=O)[nH]1)N=C(c1ccc([N+](=O)[O-])cc1)CC(c1ccccc1)N2` (stereo not drawn) came in with a TGI above 100 µM.
For `CN(C)c1ccc(NN=C2SC(=Nc3ccccc3)C(=Nc3ccccc3)S2)cc1`, the TGI was above 100 µM.
`C=C(Br)CNC(=O)Nc1ccc(Cl)c(Cl)c1`: the TGI is 48.1 µM.
`CCC(C=O)P1(=O)OC(C)(C)CN1C(C)(C)C` (stereo not drawn) yielded a TGI above 100 µM.
Regarding `CC1CC(C)C(C#N)N(C)c2ccccc21` (stereo not drawn), the TGI was above 100 µM.
Take `NC(N)=NCCCC(NC(=O)c1cccc2c(=O)c3ccccc3[nH]c12)C(=O)O` (stereo not drawn): the TGI was above 100 µM.
Compound `O=C(NNCC(O)COc1ccccc1)c1ccccc1` (stereo not drawn) came in with a TGI above 100 µM.
The same measure, in the same setting: the result for `COC(=O)[C@@H]1CC(C(C[N+](=O)[O-])c2ccc(O[Si](C)(C)C(C)(C)C)cc2)C(=O)N1C(=O)OC(C)(C)C` (stereo partly drawn) reads above 100 µM.
Same read-out and setting: the result for `O=S1(=O)OCCOS(=O)(=O)C1(F)Br` reads above 100 µM; that for `O=C(CCCN1CCC2(CC1)CC(c1ccccc1)OC2=O)c1ccc(F)cc1` (stereo not drawn), 73.7 µM; that for `O=C1NC(=O)C2C(=O)NC(=O)C1C2c1c(Cl)cccc1Cl` (stereo not drawn), above 100 µM.
Regarding `COc1cc2c(c(OC)c1)/C(=C/Sc1ccccc1)C(=O)N(C(C)(C)C)C2`, the TGI was 83.8 µM.
Compound `CC(=O)C(CN(CC(C)C)CC(C)C)C(c1ccccc1)c1c(O)c2ccccc2oc1=O` (stereo not drawn) had a TGI above 100 µM.

The record behind these values is PubChem BioAssay (NCI).
